Experiments:
[1] = test system: human embryonic stem cell derived neural stem cells (NSCs); assay: Neural Stem Cell Proliferation Assay (neurogenesis assay, ATP levels by CellTiterGlo); assay type: cell-based; conditions: 96 h, compound concentration at which 150% activity of control (100%) is reached, NSC proliferation by ATP level after 4 days incubation, dose response 8 μM to 8 nM
How it was run: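 Read-out is CellTiterGlo ATP luminescence after 4-day culture (37 °C, 5% CO2) of dual-SMAD-derived human ESC NSCs, dosed 4 h post-seeding at 8 μM to 8 nM (11 points, 2-fold). EC150 marks the concentration reaching 150% of the media-only control (0.25% DMSO).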

Structure (SMILES) | melting point [°C] | EC (150% of control) [1] [µM]
O=C1NCCn2c1c(C(F)(F)F)c1cc(Cl)cc(-c3ccc(Cl)cc3)c12 [Example 187, 8-Chloro-6-(4-chlorophenyl)-10-(trifluoromethyl)-3,4-dihydro-2H-pyrazino[1,2-a]indol-1-one] | 214 | 0.088
Cc1c2n(c3c(-c4ccc(N(C)C)nc4)cc(Cl)cc13)CCNC2=O [Example 154, 8-Chloro-6-(6-dimethylamino-pyridin-3-yl)-10-methyl-3,4-dihydro-2H-pyrazino[1,2-a]indol-1-one] | 248 | 0.022
Cc1c2n(c3c(-c4ccccc4)cc(Cl)cc13)CCNC2=O [Example 88, 8-Chloro-10-methyl-6-phenyl-3,4-dihydro-2H-pyrazino[1,2-a]indol-1-one] | 230.5 | 0.053
Cc1ccc(-c2cc(C#N)cc3c(C)c4n(c23)CCCNC4=O)cc1 [Example 288, 11-Methyl-7-(4-methylphenyl)-1-oxo-2,3,4,5-tetrahydro-[1,4]diazepino[1,2-a]indole-9-carbonitrile] | 287 | 0.04
Cc1c2n(c3c(-c4ccc(F)cc4)cc(Cl)cc13)CCCNC2=O [Example 70, 9-Chloro-7-(4-fluoro-phenyl)-11-methyl-2,3,4,5-tetrahydro-[1,4]diazepino[1,2-a]indol-1-one] | 260 | 0.063
CC(C)(C)c1ccc(-c2cc(C#N)cc3cc4n(c23)CCNC4=O)cc1 [Example 230, 6-(4-tert-Butylphenyl)-1-oxo-3,4-dihydro-2H-pyrazino[1,2-a]indole-8-carbonitrile] | 300 | 0.14
Cc1c2n(c3c(-c4cccc(Cl)c4)cc(Cl)cc13)CCNC2=O [Example 115, 8-Chloro-6-(3-chloro-phenyl)-10-methyl-3,4-dihydro-2H-pyrazino[1,2-a]indol-1-one] | 218.5 | 0.43
O=C1NCCn2c1cc1cc(F)cc(-c3ccc(Cl)cc3)c12 [Example 23, 6-(4-Chloro-phenyl)-8-fluoro-3,4-dihydro-2H-pyrazino[1,2-a]indol-1-one] | 322 | 0.019
N#Cc1cc(-c2ccc(Cl)cc2)c2c(c1)cc1n2CCNC1=O [Example 77, 6-(4-Chloro-phenyl)-1-oxo-1,2,3,4-tetrahydro-pyrazino[1,2-a]indole-8-carbonitrile] | 316.5 | 0.02
N#Cc1cc(-c2cc(F)c(F)c(F)c2)c2c(c1)cc1n2CCCNC1=O [Example 248, 1-Oxo-7-(3,4,5-trifluorophenyl)-2,3,4,5-tetrahydro-[1,4]diazepino[1,2-a]indole-9-carbonitrile] | 248.5 | 0.62
Cc1c2n(c3c(-c4ccc(N)nc4)cc(C#N)cc13)CCNC2=O [Example 242, 6-(6-Aminopyridin-3-yl)-10-methyl-1-oxo-3,4-dihydro-2H-pyrazino[1,2-a]indole-8-carbonitrile] | 332 | 0.68
N#Cc1cc(-c2ccc(Cl)cc2F)c2c(c1)cc1n2CCCNC1=O [Example 219, 7-(4-Chloro-2-fluorophenyl)-1-oxo-2,3,4,5-tetrahydro-[1,4]diazepino[1,2-a]indole-9-carbonitrile] | 217.5 | 0.08
N#Cc1cc(-c2ccc(N)nc2)c2c(c1)cc1n2CCNC1=O [Example 224, 6-(6-Aminopyridin-3-yl)-1-oxo-3,4-dihydro-2H-pyrazino[1,2-a]indole-8-carbonitrile] | 305 | 0.76
Cc1c2n(c3c(-c4cccnc4)cc(Cl)cc13)CCNC2=O [Example 137, 8-Chloro-10-methyl-6-pyridin-3-yl-3,4-dihydro-2H-pyrazino[1,2-a]indol-1-one] | 252.5 | 0.088
Cc1ccc(-c2cc(Cl)cc3c(C)c4n(c23)CCNC4=O)cc1F [Example 105, 8-Chloro-6-(3-fluoro-4-methyl-phenyl)-10-methyl-3,4-dihydro-2H-pyrazino[1,2-a]indol-1-one] | 225 | 0.029
Cc1c2n(c3c(-c4ccccc4)cc(C#N)cc13)CCCNC2=O [Example 245, 11-Methyl-1-oxo-7-phenyl-2,3,4,5-tetrahydro-[1,4]diazepino[1,2-a]indole-9-carbonitrile] | 258 | 0.095
N#Cc1cc(-c2ccc(F)c(F)c2)c2c(c1)cc1n2CCCNC1=O [Example 217, 7-(3,4-Difluorophenyl)-1-oxo-2,3,4,5-tetrahydro-[1,4]diazepino[1,2-a]indole-9-carbonitrile] | 224.5 | 0.51

Structure (SMILES) | melting point [°C] | EC (150% of control) [1] [µM]
Cc1c2n(c3c(-c4ccc5c(c4)CCO5)cc(Cl)cc13)CCNC2=O [Example 116, 8-Chloro-6-(2,3-dihydro-benzofuran-5-yl)-10-methyl-3,4-dihydro-2H-pyrazino[1,2-a]indol-1-one] | 261 | 0.055
COc1cc(-c2ccc(C(F)(F)F)cc2)c2c(c1)cc1n2CCNC1=O [Example 213, 8-Methoxy-6-[4-(trifluoromethyl)-phenyl]-3,4-dihydro-2H-pyrazino[1,2-a]indol-1-one] | 276 | 0.8
O=C1NCCn2c1cc1cc(F)cc(-c3ccc(F)c(F)c3)c12 [Example 22, 6-(3,4-Difluoro-phenyl)-8-fluoro-3,4-dihydro-2H-pyrazino[1,2-a]indol-1-one] | 289.5 | 0.037
Cc1c2n(c3c(-c4ccc5c(c4)OCO5)cc(Cl)cc13)CCNC2=O [Example 103, 6-Benzo[1,3]dioxol-5-yl-8-chloro-10-methyl-3,4-dihydro-2H-pyrazino[1,2-a]indol-1-one] | 244.5 | 0.018
Cc1c2n(c3c(-c4ccc(C#N)s4)cc(F)cc13)CCNC2=O [Example 185, 5-(8-Fluoro-10-methyl-1-oxo-3,4-dihydro-2H-pyrazino[1,2-a]indol-6-yl)thiophene-2-carbonitrile] | 249 | 0.11
Cc1c2n(c3c(-c4ccccc4)cc(C#N)cc13)CCNC2=O [Example 241, 10-Methyl-1-oxo-6-phenyl-3,4-dihydro-2H-pyrazino[1,2-a]indole-8-carbonitrile] | 253 | 0.062
N#Cc1cc(-c2ccc(Cl)c(C(F)(F)F)c2)c2c(c1)cc1n2CCNC1=O [Example 204, 6-[4-Chloro-3-(trifluoromethyl)phenyl]-1-oxo-3,4-dihydro-2H-pyrazino[1,2-a]indole-8-carbonitrile] | 347 | 1.28
N#Cc1cc(-c2ccc(CO)cc2)c2c(c1)cc1n2CCCNC1=O [Example 266, 7-[4-(Hydroxymethyl)phenyl]-1-oxo-2,3,4,5-tetrahydro-[1,4]diazepino[1,2-a]indole-9-carbonitrile] | 256.5 | 0.93
COc1ccc(-c2cc(F)cc3cc4n(c23)CCCNC4=O)cc1 [Example 16, 9-Fluoro-7-(4-methoxy-phenyl)-2,3,4,5-tetrahydro-[1,4]diazepino[1,2-a]indol-1-one] | 225.5 | 0.009
Cc1c2n(c3c(-c4ccc(S(C)(=O)=O)cc4)cc(C#N)cc13)CCNC2=O [Example 294, 10-Methyl-6-(4-methylsulfonylphenyl)-1-oxo-3,4-dihydro-2H-pyrazino[1,2-a]indole-8-carbonitrile] | 332 | 0.27
Cc1c2n(c3c(-c4ccc(Cl)nc4)cc(Cl)cc13)CCNC2=O [Example 112, 8-Chloro-6-(6-chloro-pyridin-3-yl)-10-methyl-3,4-dihydro-2H-pyrazino[1,2-a]indol-1-one] | 276 | 0.012
C[C@@H]1CNC(=O)c2cc3cc(F)cc(-c4ccc(F)cc4)c3n21 [Example 6, (R)-8-Fluoro-6-(4-fluoro-phenyl)-4-methyl-3,4-dihydro-2H-pyrazino[1,2-a]indol-1-one] | 276 | 0.22
Cc1c2n(c3c(-c4cccc(F)c4)cc(C#N)cc13)CCNC2=O [Example 259, 6-(3-Fluorophenyl)-10-methyl-1-oxo-3,4-dihydro-2H-pyrazino[1,2-a]indole-8-carbonitrile] | 226 | 0.06
N#Cc1cc(-c2cc(F)cc(F)c2)c2c(c1)cc1n2CCCNC1=O [Example 238, 7-(3,5-Difluorophenyl)-1-oxo-2,3,4,5-tetrahydro-[1,4]diazepino[1,2-a]indole-9-carbonitrile] | 211 | 1
O=C1NCCCn2c1cc1cc(F)c(F)c(-c3ccc(Cl)cc3)c12 [Example 43, 7-(4-Chloro-phenyl)-8,9-difluoro-2,3,4,5-tetrahydro-[1,4]diazepino[1,2-a]indol-1-one] | 232.5 | 0.08
Cc1c2n(c3c(-c4ccc(N(C)C)cc4)cc(F)cc13)CCNC2=O [Example 145, 6-(4-Dimethylamino-phenyl)-8-fluoro-10-methyl-3,4-dihydro-2H-pyrazino[1,2-a]indol-1-one] | 256 | 0.017
Cc1c2n(c3c(-c4ccc(Cl)c(F)c4)cc(Cl)cc13)CCNC2=O [Example 98, 8-Chloro-6-(4-chloro-3-fluoro-phenyl)-10-methyl-3,4-dihydro-2H-pyrazino[1,2-a]indol-1-one] | 242.5 | 0.019
